Key:
Set-up in all cases: scale not given: the % may be the effect or the level left
[1] = molecular target: T1, Ephrin type-A receptor 1 (Homo sapiens) (UniProt P21709); test: Inhibition of human EPHA1 assessed as enzyme activity at 1 uM using poly[Glu:Tyr] (4:1) as substrate preincubated for 20 mins followed by [gamma-33P]-ATP addition and measured after 120 mins by radiometric Hot-SpotSM Kinase assay relative to control
T1 sequence (whole entry): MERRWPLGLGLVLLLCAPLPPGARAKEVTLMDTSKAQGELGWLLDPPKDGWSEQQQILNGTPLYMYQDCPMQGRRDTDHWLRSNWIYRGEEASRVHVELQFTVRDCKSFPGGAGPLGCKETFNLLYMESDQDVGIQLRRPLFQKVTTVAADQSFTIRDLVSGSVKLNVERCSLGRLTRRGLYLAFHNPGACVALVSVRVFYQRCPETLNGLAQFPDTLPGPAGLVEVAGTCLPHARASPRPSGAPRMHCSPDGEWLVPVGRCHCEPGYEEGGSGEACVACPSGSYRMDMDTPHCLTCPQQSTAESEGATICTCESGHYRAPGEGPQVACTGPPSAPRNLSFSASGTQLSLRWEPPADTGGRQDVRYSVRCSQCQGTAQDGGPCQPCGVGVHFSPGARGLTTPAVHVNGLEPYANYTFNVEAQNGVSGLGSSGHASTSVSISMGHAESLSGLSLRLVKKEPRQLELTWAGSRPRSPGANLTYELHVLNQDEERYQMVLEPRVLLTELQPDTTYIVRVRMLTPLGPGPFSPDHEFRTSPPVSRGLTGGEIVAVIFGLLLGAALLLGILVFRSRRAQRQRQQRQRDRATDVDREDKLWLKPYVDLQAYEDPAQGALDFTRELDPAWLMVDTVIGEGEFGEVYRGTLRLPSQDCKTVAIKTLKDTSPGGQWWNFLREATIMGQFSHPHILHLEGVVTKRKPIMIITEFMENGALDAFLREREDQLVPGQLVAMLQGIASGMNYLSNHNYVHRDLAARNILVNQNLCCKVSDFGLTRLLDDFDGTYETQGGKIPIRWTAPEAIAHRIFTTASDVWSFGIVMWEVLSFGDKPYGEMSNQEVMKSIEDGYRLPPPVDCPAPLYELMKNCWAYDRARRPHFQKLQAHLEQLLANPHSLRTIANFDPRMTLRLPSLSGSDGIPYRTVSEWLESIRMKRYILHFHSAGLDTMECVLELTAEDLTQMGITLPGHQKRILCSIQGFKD

[2] = molecular target: Serine/threonine-protein kinase N3 (Homo sapiens) (UniProt Q6P5Z2); test: Inhibition of human PKN3 assessed as enzyme activity at 1 uM using KKLNRTLSVA as substrate preincubated for 20 mins followed by [gamma-33P]-ATP addition and measured after 120 mins by radiometric Hot-SpotSM Kinase assay relative to control
Serine/threonine-protein kinase N3 (Homo sapiens), sequence (Q6P5Z2 whole entry, looked up): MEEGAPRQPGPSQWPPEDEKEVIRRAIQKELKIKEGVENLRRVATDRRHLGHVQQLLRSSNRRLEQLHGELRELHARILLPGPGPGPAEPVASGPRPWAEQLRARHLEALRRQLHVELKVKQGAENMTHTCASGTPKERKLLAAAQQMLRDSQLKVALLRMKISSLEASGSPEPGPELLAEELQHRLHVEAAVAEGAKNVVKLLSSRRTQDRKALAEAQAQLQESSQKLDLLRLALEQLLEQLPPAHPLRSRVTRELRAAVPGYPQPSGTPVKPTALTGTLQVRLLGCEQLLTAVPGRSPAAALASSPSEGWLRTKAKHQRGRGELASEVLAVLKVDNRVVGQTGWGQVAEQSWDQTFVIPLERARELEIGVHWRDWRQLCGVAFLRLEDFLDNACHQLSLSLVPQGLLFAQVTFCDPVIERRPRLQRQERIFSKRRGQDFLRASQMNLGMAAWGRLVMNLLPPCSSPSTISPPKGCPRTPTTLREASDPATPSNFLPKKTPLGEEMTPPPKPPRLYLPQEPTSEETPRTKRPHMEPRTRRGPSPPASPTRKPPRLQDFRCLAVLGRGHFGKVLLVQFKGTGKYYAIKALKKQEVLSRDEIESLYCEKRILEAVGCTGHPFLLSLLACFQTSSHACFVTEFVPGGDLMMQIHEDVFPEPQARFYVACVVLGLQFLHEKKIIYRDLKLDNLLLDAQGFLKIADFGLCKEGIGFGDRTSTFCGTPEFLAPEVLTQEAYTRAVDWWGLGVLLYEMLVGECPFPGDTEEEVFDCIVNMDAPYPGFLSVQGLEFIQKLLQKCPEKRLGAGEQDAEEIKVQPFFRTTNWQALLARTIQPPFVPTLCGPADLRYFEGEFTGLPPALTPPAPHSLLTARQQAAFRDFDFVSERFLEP

[3] = molecular target: Vascular endothelial growth factor receptor 1 (Homo sapiens) (UniProt P17948); test: Inhibition of human FLT1 assessed as enzyme activity at 1 uM using poly[Glu:Tyr] (4:1) as substrate preincubated for 20 mins followed by [gamma-33P]-ATP addition and measured after 120 mins by radiometric Hot-SpotSM Kinase assay relative to control
Vascular endothelial growth factor receptor 1 (Homo sapiens), sequence (P17948 whole entry): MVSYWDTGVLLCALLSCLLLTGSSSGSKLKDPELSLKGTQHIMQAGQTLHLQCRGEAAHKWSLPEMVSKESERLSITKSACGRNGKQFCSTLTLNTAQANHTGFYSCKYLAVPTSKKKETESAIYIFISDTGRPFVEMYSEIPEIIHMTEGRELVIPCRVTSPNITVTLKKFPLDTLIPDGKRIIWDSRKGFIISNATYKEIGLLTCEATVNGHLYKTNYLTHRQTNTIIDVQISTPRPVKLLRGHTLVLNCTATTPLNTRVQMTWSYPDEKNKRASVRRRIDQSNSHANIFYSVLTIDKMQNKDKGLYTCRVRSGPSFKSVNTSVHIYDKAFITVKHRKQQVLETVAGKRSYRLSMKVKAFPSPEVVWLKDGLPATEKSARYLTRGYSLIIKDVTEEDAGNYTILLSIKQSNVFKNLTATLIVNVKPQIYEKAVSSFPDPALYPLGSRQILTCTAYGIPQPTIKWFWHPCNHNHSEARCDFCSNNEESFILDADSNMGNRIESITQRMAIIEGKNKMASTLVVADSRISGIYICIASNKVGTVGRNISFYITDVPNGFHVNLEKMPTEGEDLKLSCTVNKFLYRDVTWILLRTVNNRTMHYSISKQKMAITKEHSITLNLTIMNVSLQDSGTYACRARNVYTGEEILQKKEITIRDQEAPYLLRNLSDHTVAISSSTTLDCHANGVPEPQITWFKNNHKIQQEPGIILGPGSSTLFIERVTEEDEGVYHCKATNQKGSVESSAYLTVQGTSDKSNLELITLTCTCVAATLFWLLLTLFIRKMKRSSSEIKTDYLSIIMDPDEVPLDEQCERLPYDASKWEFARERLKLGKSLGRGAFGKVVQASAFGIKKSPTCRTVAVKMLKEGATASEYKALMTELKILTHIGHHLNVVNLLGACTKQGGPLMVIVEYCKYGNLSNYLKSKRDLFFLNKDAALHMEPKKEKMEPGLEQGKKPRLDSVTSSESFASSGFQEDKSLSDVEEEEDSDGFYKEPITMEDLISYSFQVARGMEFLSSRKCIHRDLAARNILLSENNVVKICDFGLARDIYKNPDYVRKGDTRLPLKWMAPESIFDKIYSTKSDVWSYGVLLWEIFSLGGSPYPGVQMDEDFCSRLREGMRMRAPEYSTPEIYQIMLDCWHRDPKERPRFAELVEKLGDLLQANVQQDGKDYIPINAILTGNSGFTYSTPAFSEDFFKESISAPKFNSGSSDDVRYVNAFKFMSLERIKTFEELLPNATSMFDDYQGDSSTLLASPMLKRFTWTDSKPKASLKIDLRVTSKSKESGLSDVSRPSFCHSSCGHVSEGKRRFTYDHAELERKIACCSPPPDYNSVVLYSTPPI

[4] = molecular target: Serine/threonine-protein kinase PLK2 (Homo sapiens) (UniProt Q9NYY3); test: Inhibition of human PLK2 assessed as enzyme activity at 1 uM using casein as substrate preincubated for 20 mins followed by [gamma-33P]-ATP addition and measured after 120 mins by radiometric Hot-SpotSM Kinase assay relative to control
Serine/threonine-protein kinase PLK2 (Homo sapiens), sequence (Q9NYY3 whole entry, looked up): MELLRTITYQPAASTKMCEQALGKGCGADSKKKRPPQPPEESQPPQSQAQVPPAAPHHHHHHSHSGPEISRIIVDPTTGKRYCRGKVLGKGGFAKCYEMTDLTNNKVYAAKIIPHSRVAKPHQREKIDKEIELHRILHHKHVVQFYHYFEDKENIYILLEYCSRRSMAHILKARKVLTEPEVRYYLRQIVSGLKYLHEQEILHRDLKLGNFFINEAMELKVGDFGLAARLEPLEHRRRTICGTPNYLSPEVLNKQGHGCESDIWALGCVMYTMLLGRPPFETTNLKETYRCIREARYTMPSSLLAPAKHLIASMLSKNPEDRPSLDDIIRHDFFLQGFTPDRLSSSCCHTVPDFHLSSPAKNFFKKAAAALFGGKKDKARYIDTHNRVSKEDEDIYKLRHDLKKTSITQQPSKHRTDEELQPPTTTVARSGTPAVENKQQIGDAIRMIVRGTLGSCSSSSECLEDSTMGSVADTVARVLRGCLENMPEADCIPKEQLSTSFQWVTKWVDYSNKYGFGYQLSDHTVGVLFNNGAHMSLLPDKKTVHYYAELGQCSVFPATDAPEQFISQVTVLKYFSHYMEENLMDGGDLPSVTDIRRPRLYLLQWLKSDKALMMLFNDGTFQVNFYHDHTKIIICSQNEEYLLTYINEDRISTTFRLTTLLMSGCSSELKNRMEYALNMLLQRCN

[5] = molecular target: Serine/threonine-protein kinase SIK3 (Homo sapiens) (UniProt Q9Y2K2); test: Inhibition of human SIK3 assessed as enzyme activity at 1 uM using AMARAASAAALARRR as substrate preincubated for 20 mins followed by [gamma-33P]-ATP addition and measured after 120 mins by radiometric Hot-SpotSM Kinase assay relative to control
Serine/threonine-protein kinase SIK3 (Homo sapiens), sequence (Q9Y2K2 whole entry, looked up): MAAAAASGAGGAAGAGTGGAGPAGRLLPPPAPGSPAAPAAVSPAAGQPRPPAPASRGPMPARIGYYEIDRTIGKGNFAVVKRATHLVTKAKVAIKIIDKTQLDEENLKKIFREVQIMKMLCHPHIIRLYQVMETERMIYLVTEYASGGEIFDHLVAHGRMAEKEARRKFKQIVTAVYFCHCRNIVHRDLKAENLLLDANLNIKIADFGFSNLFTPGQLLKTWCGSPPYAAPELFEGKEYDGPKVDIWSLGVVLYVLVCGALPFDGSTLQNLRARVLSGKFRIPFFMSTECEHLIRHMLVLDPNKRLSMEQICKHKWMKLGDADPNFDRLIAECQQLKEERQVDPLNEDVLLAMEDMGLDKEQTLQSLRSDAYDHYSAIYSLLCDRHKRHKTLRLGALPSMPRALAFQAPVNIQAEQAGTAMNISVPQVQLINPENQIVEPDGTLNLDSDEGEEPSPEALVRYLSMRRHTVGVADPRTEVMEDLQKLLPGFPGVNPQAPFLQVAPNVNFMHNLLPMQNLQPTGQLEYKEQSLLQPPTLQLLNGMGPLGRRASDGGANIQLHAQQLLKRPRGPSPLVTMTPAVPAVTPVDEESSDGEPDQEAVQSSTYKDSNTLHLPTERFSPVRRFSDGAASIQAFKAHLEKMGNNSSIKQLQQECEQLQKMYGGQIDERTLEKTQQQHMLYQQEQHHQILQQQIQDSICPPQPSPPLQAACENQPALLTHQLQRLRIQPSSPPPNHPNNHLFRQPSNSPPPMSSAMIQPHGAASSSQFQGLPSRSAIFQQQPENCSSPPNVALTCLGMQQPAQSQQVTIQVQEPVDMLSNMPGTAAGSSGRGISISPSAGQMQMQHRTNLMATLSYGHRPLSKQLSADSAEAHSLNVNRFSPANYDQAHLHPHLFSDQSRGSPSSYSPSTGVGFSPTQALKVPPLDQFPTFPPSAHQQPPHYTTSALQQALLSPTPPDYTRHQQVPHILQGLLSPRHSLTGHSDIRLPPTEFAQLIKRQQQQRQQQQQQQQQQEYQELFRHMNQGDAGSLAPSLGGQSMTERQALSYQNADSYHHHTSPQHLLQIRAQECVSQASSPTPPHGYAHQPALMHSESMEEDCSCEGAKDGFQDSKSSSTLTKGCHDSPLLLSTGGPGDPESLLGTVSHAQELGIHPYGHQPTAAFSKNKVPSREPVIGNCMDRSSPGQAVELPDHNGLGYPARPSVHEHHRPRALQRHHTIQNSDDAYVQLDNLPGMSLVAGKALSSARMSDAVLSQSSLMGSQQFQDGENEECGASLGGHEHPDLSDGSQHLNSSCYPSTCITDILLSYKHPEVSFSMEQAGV

[6] = molecular target: T2, Ephrin type-B receptor 2 (Homo sapiens) (UniProt P29323); test: Inhibition of human EPHB2 assessed as enzyme activity at 1 uM using poly[Glu:Tyr] (4:1) as substrate preincubated for 20 mins followed by [gamma-33P]-ATP addition and measured after 120 mins by radiometric Hot-SpotSM Kinase assay relative to control
T2 sequence (whole entry): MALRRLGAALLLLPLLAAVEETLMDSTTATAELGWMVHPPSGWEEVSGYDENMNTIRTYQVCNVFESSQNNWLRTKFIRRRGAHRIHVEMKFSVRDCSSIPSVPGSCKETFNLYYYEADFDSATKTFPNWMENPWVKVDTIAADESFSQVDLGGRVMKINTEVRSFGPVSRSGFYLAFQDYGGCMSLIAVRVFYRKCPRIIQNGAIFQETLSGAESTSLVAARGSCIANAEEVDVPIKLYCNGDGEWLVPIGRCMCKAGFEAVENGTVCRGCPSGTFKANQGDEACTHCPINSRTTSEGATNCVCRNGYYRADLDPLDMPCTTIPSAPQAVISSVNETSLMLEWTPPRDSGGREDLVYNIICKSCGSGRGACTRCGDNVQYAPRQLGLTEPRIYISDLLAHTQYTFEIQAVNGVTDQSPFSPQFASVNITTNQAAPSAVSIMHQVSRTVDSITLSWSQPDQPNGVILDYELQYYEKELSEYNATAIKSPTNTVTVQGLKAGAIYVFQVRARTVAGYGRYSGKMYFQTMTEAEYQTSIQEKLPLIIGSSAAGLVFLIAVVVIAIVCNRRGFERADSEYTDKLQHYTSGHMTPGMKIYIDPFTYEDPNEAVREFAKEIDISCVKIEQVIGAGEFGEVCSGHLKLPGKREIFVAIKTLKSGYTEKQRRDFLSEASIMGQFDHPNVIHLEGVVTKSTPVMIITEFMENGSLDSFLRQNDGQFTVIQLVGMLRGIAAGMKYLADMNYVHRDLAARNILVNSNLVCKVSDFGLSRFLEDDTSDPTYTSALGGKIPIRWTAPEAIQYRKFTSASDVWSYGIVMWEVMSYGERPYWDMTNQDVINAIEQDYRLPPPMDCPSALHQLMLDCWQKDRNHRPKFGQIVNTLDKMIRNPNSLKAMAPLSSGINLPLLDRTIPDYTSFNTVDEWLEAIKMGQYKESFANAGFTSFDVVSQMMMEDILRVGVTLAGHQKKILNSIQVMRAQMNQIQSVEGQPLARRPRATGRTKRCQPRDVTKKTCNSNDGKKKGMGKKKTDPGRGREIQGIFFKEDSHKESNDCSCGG

[7] = molecular target: CDC7/DBF4 (Cell division cycle 7-related protein kinase/Activator of S phase kinase) (Homo sapiens) (UniProt Q9UBU7+O00311); test: Inhibition of human CDC7/DBF4 assessed as enzyme activity at 1 uM using KTFCGTPEYLAPEVRREPRILSEEEQEMFRDFDYIADWC as substrate preincubated for 20 mins followed by [gamma-33P]-ATP addition and measured after 120 mins by radiometric Hot-SpotSM Kinase assay relative to control; format: protein-complex assay

Compound | Activity [1] | Activity [2] | Activity [3] | Activity [4] | Activity [5] | Activity [6] | Activity [7]
C[C@H](Nc1ncnc2nc[nH]c12)c1cc2cccc(Cl)c2c(=O)n1-c1ccccc1 | 95.2% | 101% | 94.3% | 98.6% | 92.6% | 92% | 93.8%
CC[C@H](Nc1ncnc2[nH]cnc12)c1nc2cccc(F)c2c(=O)n1-c1ccccc1 | 91.4% | 97.8% | 94.4% | 102% | 93.8% | 91.9% | 91.6%
CC(C)Oc1ccc(-c2nn([C@@H](C)c3oc4ccc(F)cc4c(=O)c3-c3cccc(F)c3)c3ncnc(N)c23)cc1F [UMBRALISIB] | 96.4% | 93.5% | 92.3% | 99.8% | 96.6% | 95.9% | 92%
